Test results as given in patent US20080234262A1 (Wyeth, priority 2007, published 2008).

Legend:
PI3K = PI3K (Homo sapiens, UniProt P42336); assay: Fluorescence polarization assay for PI3K; format: biochemical; details: PI3Kα; read-out: PI3Kα IC50;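 further: PI3K kinase reaction on PIP2 with ATP, 30-60 min, product sensed by GST-GRP with red probe in fluorescence polarization (mP), controls without enzyme and at zero time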
prostate line LNCap = assay: In vitro cell culture growth assay (MTS), LNCap; format: cell-based, human; details: Homo sapiens, LNCaP, 72 h, LNCap cells, three days after drug treatment
breast line MDA468 = assay: In vitro cell culture growth assay (MTS), MDA468; format: cell-based, human; details: Homo sapiens, 72 h, MDA468 cells, three days after drug treatment
How it was run: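 MDA468 or LNCap cells received inhibitors one day after plating and were grown for three days. Viable cell density read by MTS conversion, absorbance 490 nm, expressed as percent of control growth versus vehicle-treated cells on the same plate.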

PI3K, sequence (P42336 whole entry): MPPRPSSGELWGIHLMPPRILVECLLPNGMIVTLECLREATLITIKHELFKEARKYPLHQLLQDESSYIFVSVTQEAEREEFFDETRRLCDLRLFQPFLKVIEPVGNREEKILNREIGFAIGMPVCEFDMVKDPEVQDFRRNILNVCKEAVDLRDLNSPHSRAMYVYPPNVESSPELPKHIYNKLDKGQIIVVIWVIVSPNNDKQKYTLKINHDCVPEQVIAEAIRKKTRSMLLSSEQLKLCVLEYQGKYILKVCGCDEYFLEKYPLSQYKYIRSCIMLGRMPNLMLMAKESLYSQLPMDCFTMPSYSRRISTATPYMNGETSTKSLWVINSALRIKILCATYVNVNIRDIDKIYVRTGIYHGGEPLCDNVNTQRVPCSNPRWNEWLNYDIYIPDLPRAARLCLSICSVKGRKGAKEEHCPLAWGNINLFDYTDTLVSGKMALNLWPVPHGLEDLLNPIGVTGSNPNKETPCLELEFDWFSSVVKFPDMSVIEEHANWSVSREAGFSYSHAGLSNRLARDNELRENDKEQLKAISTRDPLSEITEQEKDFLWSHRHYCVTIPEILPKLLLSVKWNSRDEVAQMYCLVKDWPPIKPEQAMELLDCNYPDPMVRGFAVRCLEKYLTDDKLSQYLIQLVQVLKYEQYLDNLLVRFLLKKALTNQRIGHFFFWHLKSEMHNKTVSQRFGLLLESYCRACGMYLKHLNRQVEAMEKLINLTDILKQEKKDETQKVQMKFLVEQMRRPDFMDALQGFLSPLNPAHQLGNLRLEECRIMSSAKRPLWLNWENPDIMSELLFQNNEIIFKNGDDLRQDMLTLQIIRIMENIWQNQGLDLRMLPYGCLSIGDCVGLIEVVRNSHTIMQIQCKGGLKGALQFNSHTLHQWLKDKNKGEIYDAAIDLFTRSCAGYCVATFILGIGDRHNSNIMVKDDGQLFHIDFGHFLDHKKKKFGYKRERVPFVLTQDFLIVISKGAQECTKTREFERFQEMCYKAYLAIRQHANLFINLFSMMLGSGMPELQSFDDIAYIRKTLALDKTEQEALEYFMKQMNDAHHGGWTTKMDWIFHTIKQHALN
PI3K, sequence (P27986 whole entry partner): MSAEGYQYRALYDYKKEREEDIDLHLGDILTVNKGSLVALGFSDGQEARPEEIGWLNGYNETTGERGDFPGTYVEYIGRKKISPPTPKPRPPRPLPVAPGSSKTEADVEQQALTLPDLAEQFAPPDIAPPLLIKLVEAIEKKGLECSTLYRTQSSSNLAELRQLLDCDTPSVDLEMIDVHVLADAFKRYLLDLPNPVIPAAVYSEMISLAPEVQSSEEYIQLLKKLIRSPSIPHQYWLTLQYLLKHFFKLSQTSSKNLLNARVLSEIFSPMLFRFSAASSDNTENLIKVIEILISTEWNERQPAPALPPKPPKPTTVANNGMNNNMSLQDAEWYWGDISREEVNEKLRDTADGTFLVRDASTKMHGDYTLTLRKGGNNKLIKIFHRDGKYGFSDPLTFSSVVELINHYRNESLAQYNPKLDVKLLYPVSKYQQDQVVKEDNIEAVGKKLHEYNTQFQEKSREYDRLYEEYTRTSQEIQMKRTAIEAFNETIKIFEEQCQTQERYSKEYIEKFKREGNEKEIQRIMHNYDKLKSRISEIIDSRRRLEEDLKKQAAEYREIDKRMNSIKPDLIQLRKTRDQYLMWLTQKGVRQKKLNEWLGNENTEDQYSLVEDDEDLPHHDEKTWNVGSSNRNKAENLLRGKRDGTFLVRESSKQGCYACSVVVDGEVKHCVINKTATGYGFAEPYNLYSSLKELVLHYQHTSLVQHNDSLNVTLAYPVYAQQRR

| Compound | IC50 (PI3K) [µM] | IC50 (prostate line LNCap) [µM] | IC50 (breast line MDA468) [µM] |
| --- | --- | --- | --- |
| O=C(Nc1ccc(-c2nc(N3CCOCC3)c3cnn(C4CCN(Cc5cccnc5)CC4)c3n2)cc1)Nc1ccccn1 [Example 341, 1-(4-{4-morpholin-4-yl-1-[1-(pyridin-3-ylmethyl)piperidin-4-yl]-1H-pyrazolo[3,4-d]pyrimidin-6-yl}phenyl)-3-pyridin-2-ylurea] | 0.091 | 0.33 | 1.8 |
| CNCCNC(=O)Nc1ccc(-c2nc(N3CCOCC3)c3cnn(C4CCN(Cc5cccnc5)CC4)c3n2)cc1 [Example 342, 1-[2-(methylamino)ethyl]-3-(4-{4-morpholin-4-yl-1-[1-(pyridin-3-ylmethyl)piperidin-4-yl]-1H-pyrazolo[3,4-d]pyrimidin-6-yl}phenyl)urea] | 0.029 | 1.2 | 1.1 |
| O=C(Nc1ccc(-c2nc(N3CCOCC3)c3cnn(C4CCN(C(=O)c5cccnc5)CC4)c3n2)cc1)Nc1ccccn1 [Example 345, 1-(4-{4-morpholin-4-yl-1-[1-(pyridin-3-ylcarbonyl)piperidin-4-yl]-1H-pyrazolo[3,4-d]pyrimidin-6-yl}phenyl)-3-pyridin-2-ylurea] | 0.261 | 0.095 | 0.7 |
| CNCCNC(=O)Nc1ccc(-c2nc(N3CCOCC3)c3cnn(C4CCN(C(=O)c5cccnc5)CC4)c3n2)cc1 [Example 346, 1-[2-(methylamino)ethyl]-3-(4-{4-morpholin-4-yl-1-[1-(pyridin-3-ylcarbonyl)piperidin-4-yl]-1H-pyrazolo[3,4-d]pyrimidin-6-yl}phenyl)urea] | 0.045 | 5 | 9 |
| CCNC(=O)Nc1ccc(-c2nc(N3CCOCC3)c3cnn(C4CCN(Cc5ccccc5)CC4)c3n2)cc1F [Example 349, 1-{4-[1-(1-benzylpiperidin-4-yl)-4-morpholin-4-yl-1H-pyrazolo[3,4-d]pyrimidin-6-yl]-2-fluorophenyl}-3-ethylurea] | 0.485 | 0.23 | 2.5 |
| O=C(Nc1ccccc1)Nc1ccc(-c2nc(N3CCOCC3)c3cnn(C4CCN(Cc5cccnc5)CC4)c3n2)cc1F [Example 351, 1-(2-fluoro-4-{4-morpholin-4-yl-1-[1-(pyridin-3-ylmethyl)piperidin-4-yl]-1H-pyrazolo[3,4-d]pyrimidin-6-yl}phenyl)-3-phenylurea] | 0.041 | 0.07 | 0.4 |
| CNC(=O)Nc1ccc(-c2nc(N3CCOCC3)c3cnn(C4CCN(C(=O)c5cccc(F)c5)CC4)c3n2)cc1 [Example 357, 1-(4-{1-[1-(3-fluorobenzoyl)piperidin-4-yl]-4-morpholin-4-yl-1H-pyrazolo[3,4-d]pyrimidin-6-yl}phenyl)-3-methylurea] | 0.089 | 0.027 | 0.1 |
| CNC(=O)Nc1ccc(-c2nc(N3CCOCC3)c3cnn(C4CCN(C(=O)c5cccc(Cl)c5)CC4)c3n2)cc1 [Example 358, 1-(4-{1-[1-(3-chlorobenzoyl)piperidin-4-yl]-4-morpholin-4-yl-1H-pyrazolo[3,4-d]pyrimidin-6-yl}phenyl)-3-methylurea] | 0.053 | 0.027 | 0.1 |
| CNC(=O)Nc1ccc(-c2nc(N3CCOCC3)c3cnn(C4CCN(C(=O)c5ccc(F)cc5)CC4)c3n2)cc1 [Example 361, 1-(4-{1-[1-(4-fluorobenzoyl)piperidin-4-yl]-4-morpholin-4-yl-1H-pyrazolo[3,4-d]pyrimidin-6-yl}phenyl)-3-methylurea] | 0.108 | 0.027 | 0.1 |
| CNC(=O)Nc1ccc(-c2nc(N3CCOCC3)c3cnn(C4CCN(C(=O)c5ccc(Cl)cc5)CC4)c3n2)cc1 [Example 362, 1-(4-{1-[1-(4-chlorobenzoyl)piperidin-4-yl]-4-morpholin-4-yl-1H-pyrazolo[3,4-d]pyrimidin-6-yl}phenyl)-3-methylurea] | 0.042 | 0.052 | 0.4 |
| CNC(=O)Nc1ccc(-c2nc(N3CCOCC3)c3cnn(C4CCN(C(=O)c5ccc(OC)cc5)CC4)c3n2)cc1 [Example 363, 1-(4-{1-[1-(4-methoxybenzoyl)piperidin-4-yl]-4-morpholin-4-yl-1H-pyrazolo[3,4-d]pyrimidin-6-yl}phenyl)-3-methylurea] | 0.055 | 0.045 | 0.4 |
| CNC(=O)Nc1ccc(-c2nc(N3CCOCC3)c3cnn(C4CCN(C(=O)c5ccccc5OC)CC4)c3n2)cc1 [Example 365, 1-(4-{1-[1-(2-methoxybenzoyl)piperidin-4-yl]-4-morpholin-4-yl-1H-pyrazolo[3,4-d]pyrimidin-6-yl}phenyl)-3-methylurea] | 0.082 | 0.027 | 0.3 |
| CNC(=O)Nc1ccc(-c2nc(N3CCOCC3)c3cnn(C4CCN(C(=O)c5ccc(C#N)cc5)CC4)c3n2)cc1 [Example 368, 1-(4-{1-[1-(4-cyanobenzoyl)piperidin-4-yl]-4-morpholin-4-yl-1H-pyrazolo[3,4-d]pyrimidin-6-yl}phenyl)-3-methylurea] | 0.089 | 0.15 | 0.2 |
| O=C(Nc1cccnc1)Nc1ccc(-c2nc(N3CCOCC3)c3cnn(C4CCN(Cc5cccnc5)CC4)c3n2)cc1F [Example 373, 1-(2-fluoro-4-{4-morpholin-4-yl-1-[1-(pyridin-3-ylmethyl)piperidin-4-yl]-1H-pyrazolo[3,4-d]pyrimidin-6-yl}phenyl)-3-pyridin-3-ylurea] | 0.055 | 0.04 | 0.2 |
| O=C(NCCF)Nc1ccc(-c2nc(N3CCOCC3)c3cnn(C4CCN(Cc5cccnc5)CC4)c3n2)cc1F [Example 374, 1-(2-fluoroethyl)-3-(2-fluoro-4-{4-morpholin-4-yl-1-[1-(pyridin-3-ylmethyl)piperidin-4-yl]-1H-pyrazolo[3,4-d]pyrimidin-6-yl}phenyl)urea] | 0.619 | 0.14 | 1.3 |
| O=C(Nc1ccccc1)Nc1ccc(-c2nc(N3CCOCC3)c3cnn(C4CCN(C(=O)c5ccccc5)CC4)c3n2)cc1 [Example 378, 1-{4-[1-(1-benzoylpiperidin-4-yl)-4-morpholin-4-yl-1H-pyrazolo[3,4-d]pyrimidin-6-yl]phenyl}-3-phenylurea] | 0.016 | 0.027 | 0.1 |
| NC(=O)Nc1ccc(-c2nc(N3CCOCC3)c3cnn(C4CCN(C(=O)c5ccccc5)CC4)c3n2)cc1 [Example 382, 1-{4-[1-(1-benzoylpiperidin-4-yl)-4-morpholin-4-yl-1H-pyrazolo[3,4-d]pyrimidin-6-yl]phenyl}urea] | 0.085 | 0.17 | 0.2 |
| O=C(Nc1ccncc1)Nc1ccc(-c2nc(N3CCOCC3)c3cnn(C4CCN(C(=O)c5ccccc5)CC4)c3n2)cc1 [Example 384, 1-{4-[1-(1-benzoylpiperidin-4-yl)-4-morpholin-4-yl-1H-pyrazolo[3,4-d]pyrimidin-6-yl]phenyl}-3-pyridin-4-ylurea] | 0.019 | 0.042 | 0.1 |

Further lines, with some results ahead:

| IC50 (PI3K) [µM] | IC50 (prostate line LNCap) [µM] | Compound | IC50 (breast line MDA468) [µM] |
| --- | --- | --- | --- |
| 0.013 | 0.028 | O=C(Nc1ccncc1)Nc1ccc(-c2nc(N3CCOCC3)c3cnn(C4CCN(Cc5cccnc5)CC4)c3n2)cc1 [Example 340, 1-(4-{4-morpholin-4-yl-1-[1-(pyridin-3-ylmethyl)piperidin-4-yl]-1H-pyrazolo[3,4-d]pyrimidin-6-yl}phenyl)-3-pyridin-4-ylurea] | 0.1 |
| 0.246 | 0.027 | CNC(=O)Nc1ccc(-c2nc(N3CCOCC3)c3cnn(C4CCN(Cc5cccnc5)CC4)c3n2)cc1F [Example 350, 1-(2-fluoro-4-{4-morpholin-4-yl-1-[1-(pyridin-3-ylmethyl)piperidin-4-yl]-1H-pyrazolo[3,4-d]pyrimidin-6-yl}phenyl)-3-methylurea] | 0.2 |
| 0.093 | 0.027 | CNC(=O)Nc1ccc(-c2nc(N3CCOCC3)c3cnn(C4CCN(C(=O)c5ccccc5C)CC4)c3n2)cc1 [Example 356, 1-methyl-3-(4-{1-[1-(2-methylbenzoyl)piperidin-4-yl]-4-morpholin-4-yl-1H-pyrazolo[3,4-d]pyrimidin-6-yl}phenyl)urea] | 0.1 |
| 0.076 | 0.045 | CNC(=O)Nc1ccc(-c2nc(N3CCOCC3)c3cnn(C4CCN(C(=O)c5cccc(C(F)(F)F)c5)CC4)c3n2)cc1 [Example 359, 1-methyl-3-[4-(4-morpholin-4-yl-1-{1-[3-(trifluoromethyl)benzoyl]piperidin-4-yl}-1H-pyrazolo[3,4-d]pyrimidin-6-yl)phenyl]urea] | 0.2 |
| 0.035 | 0.052 | CNC(=O)Nc1ccc(-c2nc(N3CCOCC3)c3cnn(C4CCN(C(=O)c5ccc(Br)cc5)CC4)c3n2)cc1 [Example 360, 1-(4-{1-[1-(4-bromobenzoyl)piperidin-4-yl]-4-morpholin-4-yl-1H-pyrazolo[3,4-d]pyrimidin-6-yl}phenyl)-3-methylurea] | 0.2 |
| 0.075 | 0.035 | CNC(=O)Nc1ccc(-c2nc(N3CCOCC3)c3cnn(C4CCN(C(=O)c5cccc(OC)c5)CC4)c3n2)cc1 [Example 364, 1-(4-{1-[1-(3-methoxybenzoyl)piperidin-4-yl]-4-morpholin-4-yl-1H-pyrazolo[3,4-d]pyrimidin-6-yl}phenyl)-3-methylurea] | 0.3 |
| 0.043 | 0.027 | CNC(=O)Nc1ccc(-c2nc(N3CCOCC3)c3cnn(C4CCN(C(=O)c5ccc(C)cc5)CC4)c3n2)cc1 [Example 367, 1-methyl-3-(4-{1-[1-(4-methylbenzoyl)piperidin-4-yl]-4-morpholin-4-yl-1H-pyrazolo[3,4-d]pyrimidin-6-yl}phenyl)urea] | 0.1 |
| 1.58 | 0.9 | CCOC(=O)Nc1ccc(-c2nc(N3CCOCC3)c3cnn(C4CCN(C(=O)c5ccccc5)CC4)c3n2)cc1 [Example 383, Ethyl {4-[1-(1-benzoylpiperidin-4-yl)-4-morpholin-4-yl-1H-pyrazolo[3,4-d]pyrimidin-6-yl]phenyl}carbamate] | 4.3 |
